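Compound exposure: 48 hours, 5 concentrations, 96-well plates. GI50: concentration for 50% inhibition of growth. The concentration for full growth arrest is given as TGI.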
Experiments:
Experiment in all cases: NCI anticancer screen, dose series, 48 h
[1] = tested on: CAKI-1 renal
[2] = tested on: HCC-2998 colon
[3] = tested on: HL-60(TB) leukemia
[4] = tested on: MDA-MB-231 breast
[5] = tested on: MOLT-4 leukemia
[6] = tested on: RPMI-8226 leukemia
[7] = tested on: SK-MEL-28 melanoma
[8] = tested on: TK-10 renal
[9] = tested on: DLD-1 colon
[10] = tested on: KM20L2 colon

Row | Structure (SMILES) | GI50 [1] [µM] | TGI [1] [µM] | GI50 [2] [µM] | TGI [2] [µM] | GI50 [3] [µM] | TGI [3] [µM] | GI50 [4] [µM] | TGI [4] [µM] | GI50 [5] [µM] | TGI [5] [µM] | GI50 [6] [µM] | TGI [6] [µM] | GI50 [7] [µM] | TGI [7] [µM] | GI50 [8] [µM] | TGI [8] [µM] | TGI [9] [µM] | TGI [10] [µM]
1 | Oc1ccc(N=Nc2nccs2)c(O)c1 | 0.417 | 2.37 | 3.92 | 15 | 3.41 | > 100 | 8.77 | > 100 | 3.1 | 20.3 | 1.62 | 4.91 | 10.4 | 30.7 | 14 | 59.3 |  | 
2 | NC(N)=N/N=C(\N=Nc1ccccc1)c1ccc(Cl)cc1 | 1.42 | 3.29 | 2.14 | 4.68 | 1.88 | 3.85 | 1.9 | 12.7 | 2.35 | 6.16 | 3.21 | 12 | 1.98 | 4.59 | 3.18 | 12 |  | 
3 | COc1ccc2c(c1)C(C)Cc1c(ncnc1-n1cnc3ccccc31)N2C (stereo unspecified) | 0.373 | 17.2 | 0.922 | 10.4 | 0.352 | 3.74 | 1.04 | 4.35 | 0.479 | 21.2 | 0.556 | 27.6 | 10.1 | 22.9 | 0.793 | 37.1 |  | 
4 | C1COCCSC2=C(SCCO1)SC(=C1SC3=C(SCCOCCOCCS3)S1)S2 |  | > 100 |  | > 100 |  | > 100 |  |  |  | > 100 |  |  |  | > 100 |  | > 100 | > 100 | > 100
5 | Cn1cc(S(=O)(=O)N2CCC3=Cc4c(cnn4-c4ccc(F)cc4)C[C@]3(C(=O)c3cc(C(F)(F)F)ccn3)C2)cn1 | 60.1 | > 100 | > 100 | > 100 | > 100 | > 100 | > 100 | > 100 | > 100 | > 100 | 93.7 | > 100 | > 100 | > 100 | > 100 | > 100 |  | 
6 | CC1(C)N=C(N)N=C(N)N1c1cccc(OCCOc2cccc([N+](=O)[O-])c2)c1 | > 100 | > 100 | 2.81 | > 100 | 1.18 | > 77.8 | 10.2 | > 100 | 2.45 | > 100 | 4.01 | > 100 | 7.86 | > 100 | 66 | > 100 |  | 
7 | NC(CCc1ncc(C(=O)O)s1)C(=O)O (stereo unspecified) |  | > 100 |  | > 100 |  |  |  |  |  | > 100 |  | > 100 |  | > 100 |  | > 100 | > 100 | 
8 | Oc1ccc(/C=C/c2cc(O)cc3c2C(c2cc(O)cc(O)c2)C(c2ccc(O)c(O)c2)O3)cc1 (stereo unspecified) |  | 98.1 |  | 57.4 |  | 54.5 |  | 68 |  | 33.5 |  | 40.6 |  | > 100 |  | > 100 |  | 
9 | CC(Cl)CN1c2ccccc2Sc2ccc(Cl)cc21 (stereo unspecified) |  | > 10 |  | > 10 |  | > 10 |  | > 10 |  | > 10 |  | > 10 |  | > 10 |  | > 10 |  | 
10 | c1ccc2c(c1)c1ccccc1c1ccccc21 | > 100 | > 100 | > 100 | > 100 | > 100 | > 100 | 87.2 | > 100 | 77.3 | > 100 | > 100 | > 100 | > 100 | > 100 | > 100 | > 100 |  | 
11 | CCOC(=O)C1=C(Nc2ccc(Br)cc2)OCC1=O |  | > 100 |  | > 100 |  | 33.9 |  |  |  | > 100 |  |  |  | > 100 |  | > 100 | > 100 | > 100
12 | NCCCOc1cc2ccccc2cc1C(=O)NCCCOc1cc2ccccc2cc1C(=O)Nc1ccc(Cl)cc1O | 0.829 | 2.42 | 0.992 | 2.48 | 0.512 | 2.2 | 0.629 | 1.82 | 0.314 | 1.54 | 0.578 | 7.09 | 0.289 | 0.728 | 0.583 | 1.26 |  | 
13 | CN1C(NNC(=O)c2cccnc2)=NS(=O)(=O)c2cc(Cl)ccc21 | > 100 | > 100 | > 100 | > 100 | > 100 | > 100 | > 100 | > 100 | > 100 | > 100 | > 100 | > 100 | > 100 | > 100 | > 100 | > 100 |  | 
14 | COC(=O)c1c[nH]cc1CCCCc1c[nH]cc1C(=O)OC |  | > 100 |  | > 100 |  | > 100 |  |  |  | > 100 |  |  |  | > 100 |  | > 100 |  | > 100
15 | COc1cc(/C=N\O[Si](C)(C)C(C)(C)C)ccc1O[Si](C)(C)C(C)(C)C |  | > 100 |  | 56.8 |  | > 100 |  |  |  | > 100 |  | > 100 |  |  |  | > 100 | > 100 | > 100
16 | C=C(C)[C@@H]1CC[C@]2(C)[C@H](CC[C@@H]3[C@@H]([C@@](C)(O)CCC=C(C)C)CC[C@]32C)[C@@]1(C)CCC(=O)O | 13.9 | 27.7 | 21.2 | 37.8 | 20.6 | 54.5 | 16.6 | 33.1 | 15.4 | 52.7 | 12.2 | 38.2 | 16.3 | 30.3 | 40.6 | > 100 |  | 
17 | COC(=O)C(=O)CC(=O)c1cccc(OC)c1 |  | > 100 |  | > 100 |  | > 100 |  | > 100 |  | > 100 |  | > 100 |  | > 100 |  | > 100 |  | 

— PubChem BioAssay (NCI)
